Laboratory results: patent publication US10597388B2, “Pyridazinone herbicides” (FMC CORPORATION, priority 2014, dated 2020)

Assays:
Experiment in all cases: Test C greenhouse herbicide test, pre- and postemergence
Assay type in all cases: in vivo
[1] = test system: foxtail, giant (giant foxtail, Setaria faberii)
From the text: (§1) Seeds of plant species selected from blackgrass (Alopecurus myosuroides), ryegrass, Italian (Italian ryegrass, Lolium multiflorum), wheat (winter wheat, Triticum aestivum), galium (catchweed bedstraw, Galium aparine), corn (Zea mays), large crabgrass, large (large crabgrass, Digitaria sanguinalis), foxtail, giant (giant foxtail, Setaria faberii), johnsongrass (Sorghum halepense), lambsquarters (Chenopodium album), morningglory (Ipomoea coccinea), nutsedge, yellow (yellow nutsedge, Cyperus esculentus), pigweed (Amaranthus retroflexus), ragweed (common ragweed, Ambrosia elatior), soybean (Glycine max), barnyardgrass (Echinochloa crus-galli), oilseed rape (Brassica napus), waterhemp (common waterhemp, Amaranthus rudis), and velvetleaf (Abutilon theophrasti) were planted into a blend of loam soil and sand and treated preemergence with test chemicals formulated in a non-phytotoxic solvent mixture which included a surfactant.
(§2) At the same time, plants selected from these crop and weed species and also chickweed (common chickweed, Stellaria media), kochia (Kochia scoparia), and oat, wild (wild oat, Avena fatua), were planted in pots containing Redi-Earth® planting medium (Scotts Company, 14111 Scottslawn Road, Marysville, Ohio 43041) comprising spaghnum peat moss, vermiculite, wetting agent and starter nutrients and treated with postemergence applications of test chemicals formulated in the same manner. Plants ranged in height from 2 to 18 cm (1- to 4-leaf stage) for postemergence treatments. Treated plants and controls were maintained in a greenhouse for 13 to 15 d, after which time all species were compared to controls and visually evaluated. Plant response ratings, summarized in Table C, are based on a scale of 0 to 100 where 0 is no effect and 100 is complete control. A dash (-) response means no test result.

[2] = test system: morningglory (Ipomoea coccinea)
From the text: as §1, §2

[3] = test system: lambsquarters (Chenopodium album)
From the text: as §1, §2

[4] = test system: corn (Zea mays)
From the text: as §1, §2

[5] = test system: waterhemp (common waterhemp, Amaranthus rudis)
From the text: as §1, §2

[6] = test system: ragweed (common ragweed, Ambrosia elatior)
From the text: as §1, §2

[7] = test system: pigweed (Amaranthus retroflexus)
From the text: as §1, §2

[8] = test system: galium (catchweed bedstraw, Galium aparine)
From the text: as §1, §2

[9] = test system: nutsedge, yellow (yellow nutsedge, Cyperus esculentus)
From the text: as §1, §2

[10] = test system: johnsongrass (Sorghum halepense)
From the text: as §1, §2

[11] = test system: velvetleaf (Abutilon theophrasti)
From the text: as §1, §2

[12] = test system: blackgrass (Alopecurus myosuroides)
From the text: as §1, §2

[13] = test system: barnyardgrass (Echinochloa crus-galli)
From the text: as §1, §2

[14] = test system: oilseed rape (Brassica napus)
From the text: as §1, §2

[15] = test system: crabgrass, large (large crabgrass, Digitaria sanguinalis)
From the text: as §1, §2

[16] = test system: ryegrass, Italian (Italian ryegrass, Lolium multiflorum)
From the text: as §1, §2

[17] = Postemergence, 125 g ai/ha, scale 0 to 100, 0 is no effect, 100 is complete control
[18] = Postemergence, 250 g ai/ha, scale 0 to 100, 0 no effect, 100 complete control, 13 to 15 d
[19] = Preemergence, 31 g ai/ha, scale 0 to 100, 0 is no effect, 100 is complete control
[20] = Preemergence, 62 g ai/ha, scale 0 to 100, 0 is no effect, 100 is complete control
[21] = Preemergence, 125 g ai/ha, scale 0 to 100, 0 is no effect, 100 is complete control
[22] = Preemergence, 250 g ai/ha, scale 0 to 100 (0 no effect, 100 complete control)
[23] = postemergence, 62 g ai/ha, scale 0 to 100, 0 no effect, 100 complete control
[24] = Postemergence, 31 g ai/ha, 0 to 100 scale (0 no effect, 100 complete control)

C#CCOC(=O)Oc1c(C)nn(C)c(=O)c1-c1c(C)sc2ccc(C)cc12 [Compound 87]
Plant response rating, Foxtail, Giant [1, 17]: 75
Plant response rating, Foxtail, Giant [1, 18]: 85
Plant response rating, Foxtail, Giant [1, 19]: 70
Plant response rating, Foxtail, Giant [1, 20]: 80
Plant response rating, Foxtail, Giant [1, 21]: 90
Foxtail, Giant plant response rating [1, 22]: 95
Foxtail, Giant plant response rating [1, 23]: 55
Plant response rating, Morningglory [2, 17]: 100
Plant response rating, Morningglory [2, 18]: 100
Plant response rating, Morningglory [2, 19]: 85
Plant response rating, Morningglory [2, 20]: 90
Plant response rating, Morningglory [2, 21]: 95
Morningglory plant response rating [2, 22]: 95
Morningglory plant response rating [2, 23]: 98
Plant response rating, Lambsquarters [3, 17]: 98
Plant response rating, Lambsquarters [3, 18]: 100
Plant response rating, Lambsquarters [3, 19]: 55
Plant response rating, Lambsquarters [3, 20]: 80
Plant response rating, Lambsquarters [3, 21]: 85
Lambsquarters plant response rating [3, 22]: 100
Lambsquarters plant response rating [3, 23]: 98
Corn plant response rating [4, 24]: 5
Plant response rating, Corn [4, 17]: 30
Plant response rating, Corn [4, 18]: 5
Plant response rating, Corn [4, 19]: 0
Plant response rating, Corn [4, 20]: 10
Plant response rating, Corn [4, 21]: 0
Corn plant response rating [4, 22]: 10
Corn plant response rating [4, 23]: 5
Plant response rating, Waterhemp [5, 17]: 90
Plant response rating, Waterhemp [5, 18]: 90
Plant response rating, Waterhemp [5, 19]: 100
Plant response rating, Waterhemp [5, 20]: 100
Plant response rating, Waterhemp [5, 21]: 100
Waterhemp plant response rating [5, 22]: 100
Waterhemp plant response rating [5, 23]: 80
Plant response rating, Ragweed [6, 17]: 95
Plant response rating, Ragweed [6, 18]: 100
Plant response rating, Ragweed [6, 19]: 90
Plant response rating, Ragweed [6, 20]: 90
Plant response rating, Ragweed [6, 21]: 95
Ragweed plant response rating [6, 22]: 90
Ragweed plant response rating [6, 23]: 95
Plant response rating, Pigweed [7, 17]: 90
Plant response rating, Pigweed [7, 18]: 98
Plant response rating, Pigweed [7, 19]: 75
Plant response rating, Pigweed [7, 20]: 100
Plant response rating, Pigweed [7, 21]: 100
Pigweed plant response rating [7, 22]: 100
Pigweed plant response rating [7, 23]: 90
Plant response rating, Galium [8, 17]: 95
Plant response rating, Galium [8, 18]: 98
Plant response rating, Galium [8, 19]: 95
Plant response rating, Galium [8, 20]: 95
Plant response rating, Galium [8, 21]: 98
Galium plant response rating [8, 22]: 98
Galium plant response rating [8, 23]: 95
Plant response rating, Nutsedge, Yellow [9, 17]: 80
Plant response rating, Nutsedge, Yellow [9, 18]: 85
Plant response rating, Nutsedge, Yellow [9, 19]: 10
Plant response rating, Nutsedge, Yellow [9, 20]: 35
Plant response rating, Nutsedge, Yellow [9, 21]: 85
Nutsedge, Yellow plant response rating [9, 22]: 80
Nutsedge, Yellow plant response rating [9, 23]: 80
Plant response rating, Johnsongrass [10, 17]: 5
Plant response rating, Johnsongrass [10, 18]: 10
Plant response rating, Johnsongrass [10, 19]: 5
Plant response rating, Johnsongrass [10, 20]: 25
Plant response rating, Johnsongrass [10, 21]: 40
Johnsongrass plant response rating [10, 22]: 40
Johnsongrass plant response rating [10, 23]: 5
Plant response rating, Velvetleaf [11, 17]: 90
Plant response rating, Velvetleaf [11, 18]: 90
Plant response rating, Velvetleaf [11, 19]: 55
Plant response rating, Velvetleaf [11, 20]: 85
Plant response rating, Velvetleaf [11, 21]: 90
Velvetleaf plant response rating [11, 22]: 90
Velvetleaf plant response rating [11, 23]: 85
Blackgrass plant response rating [12, 24]: 10
Plant response rating, Blackgrass [12, 17]: 60
Plant response rating, Blackgrass [12, 18]: 65
Plant response rating, Blackgrass [12, 19]: 40
Plant response rating, Blackgrass [12, 20]: 30
Plant response rating, Blackgrass [12, 21]: 85
Blackgrass plant response rating [12, 22]: 90
Blackgrass plant response rating [12, 23]: 35
Barnyardgrass plant response rating [13, 24]: 25
Plant response rating, Barnyardgrass [13, 17]: 35
Plant response rating, Barnyardgrass [13, 18]: 45
Plant response rating, Barnyardgrass [13, 19]: 5
Plant response rating, Barnyardgrass [13, 20]: 35
Plant response rating, Barnyardgrass [13, 21]: 65
Barnyardgrass plant response rating [13, 22]: 85
Barnyardgrass plant response rating [13, 23]: 25
Plant response rating, Oilseed Rape [14, 17]: 50
Plant response rating, Oilseed Rape [14, 18]: 20
Plant response rating, Oilseed Rape [14, 19]: 30
Plant response rating, Oilseed Rape [14, 20]: 30
Plant response rating, Oilseed Rape [14, 21]: 85
Oilseed Rape plant response rating [14, 22]: 80
Oilseed Rape plant response rating [14, 23]: 50
Plant response rating, Crabgrass, Large [15, 17]: 25
Plant response rating, Crabgrass, Large [15, 18]: 35
Plant response rating, Crabgrass, Large [15, 19]: 10
Plant response rating, Crabgrass, Large [15, 20]: 65
Plant response rating, Crabgrass, Large [15, 21]: 80
Crabgrass, Large plant response rating [15, 22]: 85
Crabgrass, Large plant response rating [15, 23]: 10
Plant response rating, Ryegrass, Italian [16, 17]: 85
Plant response rating, Ryegrass, Italian [16, 18]: 85
Plant response rating, Ryegrass, Italian [16, 19]: 35
Plant response rating, Ryegrass, Italian [16, 20]: 90
Plant response rating, Ryegrass, Italian [16, 21]: 90
Ryegrass, Italian plant response rating [16, 22]: 90
Ryegrass, Italian plant response rating [16, 23]: 80
